This test relates to Female mice. The test is described as follows: In vivo hot plate method analgesia test. In outline:
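Female mice (~20 g) on a 55° C hot plate, hindpaw response latency as pain threshold (pre-screen 5–30 s, 60 s cut-off). Latencies at 15, 30, 60 and 120 min after intraperitoneal dosing. %MPE = (post−pre latency)/(60−pre)×100, ED50 derived from %MPE.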

As to `COc1cccc(C2(O)CCCCC2CN(C)C)c1` (stereo not shown) [Tramadol, reference compound], the “analgesic effect” value is on record as “no analgesic effect” (Table 1-2, hot plate, 5 mg/kg dose); “no analgesic effect” (Table 2-2, hot plate, at 5 mg/kg or 50 mg/kg dose); “no effective” (Table 3-2, hot plate, @10 mg/kg); “no analgesic effect” (Table 4-2, hot plate, 10 mg/kg dose); “no analgesic effect” (Table 5-2, hot plate, 10 mg/kg dose). Besides, for the setting “Table 1-2, hot plate, 50 mg/kg dose”, the “Maximum percentage effective analgesic (% MPE)” value was 64.5%. Besides, the “% MPE” value amounted to 64.5% (Table 2-2, hot plate, tramadol, dose of this value not clearly printed); 64.5% (Table 3-2, hot plate, @50 mg/kg); 64.5% (Table 4-2, hot plate, 50 mg/kg dose). Further, the “Maximum percentage effective analgesia (% MPE)” value (Table 5-2, hot plate, 50 mg/kg dose) was determined as 64.5%.
